# Laboratory results reported in patent US8986995B2, “Methods of deriving differentiated cells from stem cells” (International Stem Cell Corporation, priority 2008, dated 2015).
# “Also recorded” adds a separate entry of the source.
# Assays:
# hpSC = assay: Proportion of DE derived from hpSC, HDAC inhibitor pretreatment versus simultaneous application with Activin A; type: cell-based, human; conditions: for enhancement in the proportion of DE produced from hpSC: applied at the same time with Activin A
# hpSC line 2 p = assay: Flow cytometry for CXCR4-positive definitive endoderm cells after differentiation, line 2 p; type: cell-based, human; conditions: TSA pretreatment
# Experimental: (§1) Cell culture. Undifferentiated hpSC and hESC were maintained on mouse embryo fibroblast feeder layers in KnockOut DMEM/F12 (Invitrogen) supplemented with 15% KnockOut serum replacement (Invitrogen), 0.05 mM nonessential amino acids (NEAA) (Invitrogen), 2 mM Glutamax-I (Invitrogen), penicillin/streptomycin (Invitrogen), 55 μM 2-mercapthoethonol (Invitrogen), 5 ng/ml recombinant human FGF-basic (PeproTech) and 20 ng/ml recombinant human activin A (R&D Systems); for TSA-pretreatment culture medium was supplemented with 100 nM TSA (Sigma) for 24 hours. Cultures were manually passaged at 1:4-1:6 split ratio every 5-7 days. Differentiation was carried out in RPMI 1640 (Invitrogen) supplemented with Glutamax-I, penicillin/streptomycin, 0.5 mg/ml human serum albumin (Sigma), 100 ng/ml recombinant human Activin A, 75 ng/ml recombinant mouse Wnt3a (R&D Systems) for the first 24 hours only. For subsequent days of differentiation media was RPMI 1640 supplemented with 0.2% human AB serum (Fisher BioReagents) and 100 ng/ml recombinant human Activin A. Before initiating differentiation, stem cells were given a brief wash in DPBS (HyClone). […]
# (§2) Flow cytometry. […] Flow cytometry data were acquired on a Beckton Dickinson FACS Caliber and analyzed using FACSDiva software (BD Bioscience).
# hpSC line 6 p = assay: Flow cytometry for CXCR4-positive definitive endoderm cells after differentiation, line 6 p; type: cell-based, human; conditions: TSA pretreatment
# Experimental: as §1, §2
# hpSC line 8 p = assay: Flow cytometry for CXCR4-positive definitive endoderm cells after differentiation, line 8 p; type: cell-based, human; conditions: TSA pretreatment
# Experimental: as §1, §2
# hpSC line 15 ph = assay: Flow cytometry for CXCR4-positive definitive endoderm cells after differentiation, line 15 ph; type: cell-based, human; conditions: TSA pretreatment
# Experimental: as §1, §2
# [1] = tested on: human parthenogenetic stem cells (hpSC); assay: Flow cytometry for CXCR4-positive cells, hpSC differentiation to definitive endoderm; type: cell-based; conditions: all 4 hpSC lines, CXCR4-positive cells by flow cytometry
# Experimental: as §1
# Flow cytometry. […] Flow cytometry data were acquired on a Beckton Dickinson FACS Caliber and analyzed using FACSDiva software (BD Bioscience). […]
# [2] = tested on: human parthenogenetic stem cells (hpSC); assay: SOX17 immunostaining of differentiated hpSC; type: cell-based
# Experimental: (§3) Cell culture. Undifferentiated hpSC and hESC were maintained on mouse embryo fibroblast feeder layers in KnockOut DMEM/F12 (Invitrogen) supplemented with 15% KnockOut serum replacement (Invitrogen), 0.05 mM nonessential amino acids (NEAA) (Invitrogen), 2 mM Glutamax-I (Invitrogen), penicillin/streptomycin (Invitrogen), 55 μM 2-mercapthoethonol (Invitrogen), 5 ng/ml recombinant human FGF-basic (PeproTech) and 20 ng/ml recombinant human activin A (R&D Systems); for TSA-pretreatment culture medium was supplemented with 100 nM TSA (Sigma) for 24 hours. Cultures were manually passaged at 1:4-1:6 split ratio every 5-7 days. Differentiation was carried out in RPMI 1640 (Invitrogen) supplemented with Glutamax-I, penicillin/streptomycin, 0.5 mg/ml human serum albumin (Sigma), 100 ng/ml recombinant human Activin A, 75 ng/ml recombinant mouse Wnt3a (R&D Systems) for the first 24 hours only. For subsequent days of differentiation media was RPMI 1640 supplemented with 0.2% human AB serum (Fisher BioReagents) and 100 ng/ml recombinant human Activin A. Before initiating differentiation, stem cells were given a brief wash in DPBS (HyClone). […] The protocol is divided into two stages: TSA-pretreatment stage (orange color) and DE differentiation stage (green color). […]
# [3] = tested on: human parthenogenetic stem cells (hpSC); assay: Real-time quantitative PCR of marker gene expression in hpSC; type: cell-based
# Experimental: Cell culture. Undifferentiated hpSC and hESC were maintained on mouse embryo fibroblast feeder layers in KnockOut DMEM/F12 (Invitrogen) supplemented with 15% KnockOut serum replacement (Invitrogen), 0.05 mM nonessential amino acids (NEAA) (Invitrogen), 2 mM Glutamax-I (Invitrogen), penicillin/streptomycin (Invitrogen), 55 μM 2-mercapthoethonol (Invitrogen), 5 ng/ml recombinant human FGF-basic (PeproTech) and 20 ng/ml recombinant human activin A (R&D Systems); for TSA-pretreatment culture medium was supplemented with 100 nM TSA (Sigma) for 24 hours. Cultures were manually passaged at 1:4-1:6 split ratio every 5-7 days. Differentiation was carried out in RPMI 1640 (Invitrogen) supplemented with Glutamax-I, penicillin/streptomycin, 0.5 mg/ml human serum albumin (Sigma), 100 ng/ml recombinant human Activin A, 75 ng/ml recombinant mouse Wnt3a (R&D Systems) for the first 24 hours only. For subsequent days of differentiation media was RPMI 1640 supplemented with 0.2% human AB serum (Fisher BioReagents) and 100 ng/ml recombinant human Activin A. Before initiating differentiation, stem cells were given a brief wash in DPBS (HyClone). […] The protocol is divided into two stages: TSA-pretreatment stage (orange color) and DE differentiation stage (green color). TSA-pretreatment is performed against background of the culture conditions that support pluripotency state of the hpSC at time interval from “−24” hours till “0” hours. Differentiation starts from time point “0” hours by applying Activin A- and Wnt3a-signaling and withholding TSA from culture medium. Several markers characteristics of each cell population are listed.
# Real-time quantitative PCR. Sample collection, reverse transcription and real-time PCR reactions were as previously described (D'Amour et al, Nat. Biotechnol 23:1534-41, 2005).
# undifferentiated hpSC = assay: Cell death and morphology of undifferentiated hpSC under pretreatment; type: cell-based, human; conditions: TSA pretreatment of undifferentiated hpSC
# Experimental: as §3
# [4] = tested on: LLC-6p parthenogenetic stem cell line; assay: Immunostaining of definitive endoderm markers, Example 1 protocol; type: cell-based, human; conditions: 100 μM TSA pretreatment, then D1, D2, D3 media
# Experimental: These endoderm-like cells were derived according a protocol of various culture media (D1-Activin A+Wnt3a; D2-Activin A; D3—Activin A; see Tables 1-4, below). However, prior to culture, the parthenogenetic cells were exposed to a pretreatment agent (trichostatin A (TSA)).
# Accordingly, a protocol for generating definitive endoderm cells is as follows: (i) addition of 100 μM trichostatin A (TSA) to culture medium (phSC culture medium+TSA) and culture cells for about 24 hours; (ii) cultivation of the cells in phSC culture medium+TSA for about 24 hours; (iii) remove TSA from the culture (i.e., cultivation of the cells in culture medium D1 for about 24 hours); (iv) cultivation of the cells in culture medium D2 for about 24 hours; and (v) cultivation of the cells in culture medium D3 for about 24 hours.
# [5] = tested on: mouse embryonic stem cells; conditions: cited from earlier work
Compound,enhancement in the proportion of DE produced from hpSC (hpSC),proportion of DE derived from hpSC (hpSC; pretreatment of hpSC before Activin A),"CXCR-4 (CD184) + [% ""Intact"" Cells] (hpSC line 2 p; 3 day of differentiation) [%]","CXCR-4 (CD184) + [% ""Intact"" Cells] (hpSC line 2 p; 4 day of differentiation) [%]","CXCR-4 (CD184) + [% ""Intact"" Cells] (hpSC line 6 p; 3 day of differentiation) [%]","CXCR-4 (CD184) + [% ""Intact"" Cells] (hpSC line 6 p; 4 day of differentiation) [%]","CXCR-4 (CD184) + [% ""Intact"" Cells] (hpSC line 8 p; 3 day of differentiation) [%]","CXCR-4 (CD184) + [% ""Intact"" Cells] (hpSC line 8 p; 4 day of differentiation) [%]","CXCR-4 (CD184) + [% ""Intact"" Cells] (hpSC line 15 ph; 3 day of differentiation) [%]","CXCR-4 (CD184) + [% ""Intact"" Cells] (hpSC line 15 ph; 4 day of differentiation) [%]",increase in number of definitive endoderm cells over non-pretreated cultures [1],"relative proportion of SOX17 immunoreactive cells ([2]; after differentiation during 72 hours, TSA-treated versus non treated hpSC cultures)","proportion of SOX17-positive cells ([2]; hpSC pretreated with TSA 24 hours, after 72 hours of differentiation)","brachyury gene expression during differentiation ([3]; TSA-pretreated versus non TSA pretreated cultures, 24 h and 48 h of differentiation)","brachyury expression after pretreatment ([3]; after 24 hours TSA pretreatment, before start of differentiation (0h))","expression of pluripotency genes OCT4 and SOX2 and DE genes CER1, SOX17, CXCR4 ([3]; after TSA pretreatment, before start of differentiation (0h))",cell death and cell morphology (undifferentiated hpSC),FoxA2 expression by immunostaining [4],Sox17 expression by immunostaining [4],effect on pluripotency factors including Nanog [5]
"CCCC(=O)[O-].[Na+] [NaB, sodium butyrate]",did not produce any enhancement,increased the proportion of DE,–,–,–,–,–,–,–,–,–,–,–,–,–,–,–,–,–,–
"CC(/C=C/C(=O)NO)=C\[C@@H](C)C(=O)c1ccc(N(C)C)cc1 [TSA, trichostatin A]",did not produce any enhancement,–,61.0,58.9,61.2,67.6,67.1,76.7,24.1,34.2,1.4-1.8 fold,most numerous,greater than 70%,higher peak level of brachyury gene expression at 24 h and sharper kinetic of reduced expression at 48 h; also recorded: significantly higher levels of brachyury transcripts,slight upregulation of brachyury expression,no significant changes,some cell death as well as changes in cell morphology,overwhelming majority of cells expressed FoxA2,majority of cells expressed Sox17,suppression of important pluripotency factors
